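Five compound concentrations were applied to cells in 96-well plates for 48 hours; endpoints were derived by simple linear interpolation of the resulting dose-response curve. Abbreviation: GI50, concentration required for 50% inhibition of growth.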 Calls of active or inactive are those of the source. Cut-off read from the data, not from the text of the source: active = GI50 up to about 1.1 µM and inactive = higher.
What was measured:
Assay in all cases: DTP human tumour cell line panel, 48 h
[1] = system: SR
[2] = system: ACHN
[3] = system: NCI/ADR-RES
[4] = system: MDA-MB-231
[5] = system: SK-OV-3
[6] = system: A498
[7] = system: OVCAR-8
[8] = system: UO-31
[9] = system: SK-MEL-5
[10] = system: 786-0
[11] = system: K562
[12] = system: LOX IMVI
[13] = system: DU-145
[14] = system: KM12
[15] = system: NCI-H23
[16] = system: OVCAR-5
[17] = system: OVCAR-3
[18] = system: SF-268
[19] = system: OVCAR-4
[20] = system: PC-3

Row | SMILES | GI50 [1] | GI50 [2] | GI50 [3] | GI50 [4] | GI50 [5] | GI50 [6] | GI50 [7] | GI50 [8] | GI50 [9] | GI50 [10] | GI50 [11] | GI50 [12] | GI50 [13] | GI50 [14] | GI50 [15] | GI50 [16] | GI50 [17] | GI50 [18] | GI50 [19] | GI50 [20]
1 | COc1ccc2nc3ccccc3c(NCCN(C)CCCl)c2c1 | 0.0303 µM (active) | 0.24 µM (active) | 0.647 µM (active) | 1.15 µM (inactive) | 0.861 µM (active) | 0.984 µM (active) | 0.431 µM (active) | 1.16 µM (inactive) | 0.644 µM (active) | 0.21 µM (active) | 0.337 µM (active) | 0.336 µM (active) | 1.12 µM (active) | 0.807 µM (active) | 0.604 µM (active) | 1.03 µM (active) | 0.736 µM (active) | 0.55 µM (active) | 0.908 µM (active) | 0.205 µM (active)
2 | COc1ccc(C2=Nn3c(nc4sc5c(c4c3=O)CCCC5)SC2)cc1 | > 100 µM (inactive) | > 100 µM (inactive) | > 100 µM (inactive) | > 100 µM (inactive) | > 100 µM (inactive) | > 100 µM (inactive) | > 100 µM (inactive) | > 100 µM (inactive) | > 100 µM (inactive) | > 100 µM (inactive) | > 100 µM (inactive) | > 100 µM (inactive) | > 100 µM (inactive) | > 100 µM (inactive) | > 100 µM (inactive) | > 100 µM (inactive) | > 100 µM (inactive) | > 100 µM (inactive) | > 100 µM (inactive) | > 100 µM (inactive)
3 | COc1cccc(C2SCC(=O)N2c2ccc(-c3ccc(-n4c(-c5ccccc5)nc5ccccc5c4=O)cc3)cc2)c1OC (stereo not given) | 60.1 µM (inactive) | > 100 µM (inactive) | > 100 µM (inactive) | > 100 µM (inactive) | > 10 µM (inactive) | > 100 µM (inactive) | > 100 µM (inactive) | 32.8 µM (inactive) | 30.1 µM (inactive) | > 100 µM (inactive) | 73.6 µM (inactive) | 50.7 µM (inactive) | > 100 µM (inactive) | 50.4 µM (inactive) | > 100 µM (inactive) | > 100 µM (inactive) | > 100 µM (inactive) | 71.8 µM (inactive) | 77.6 µM (inactive) | > 100 µM (inactive)
4 | C=C1C(=O)CC2C(=O)C(C)(O)CC/C=C(\C)C(=O)CC12 (stereo not given) | 20.2 µM (inactive) | 10.2 µM (inactive) | 38.5 µM (inactive) | 26.7 µM (inactive) | > 100 µM (inactive) | > 86.9 µM (inactive) | 20.1 µM (inactive) | 6.7 µM (inactive) | 14.7 µM (inactive) | 16.1 µM (inactive) | 6.37 µM (inactive) | 16.3 µM (inactive) | 18.2 µM (inactive) | 32.6 µM (inactive) | 16.9 µM (inactive) | 20.7 µM (inactive) | 17 µM (inactive) | 19.5 µM (inactive) | 37.6 µM (inactive) | 24.7 µM (inactive)
5 | CCOC(=O)c1cnc2[nH]ccn2c1=O | > 10 µM (inactive) | > 10 µM (inactive) | > 10 µM (inactive) | > 10 µM (inactive) | > 10 µM (inactive) | 5.48 µM (inactive) | > 10 µM (inactive) | > 10 µM (inactive) | > 10 µM (inactive) | > 10 µM (inactive) | > 10 µM (inactive) | > 10 µM (inactive) | > 10 µM (inactive) | > 10 µM (inactive) | > 10 µM (inactive) | > 10 µM (inactive) | > 10 µM (inactive) | > 10 µM (inactive) | > 10 µM (inactive) | > 10 µM (inactive)
6 | CCOc1ccc(/N=C/c2ccnc3ccccc23)cc1 | 0.752 µM (active) | 58.2 µM (inactive) | 35.9 µM (inactive) | 20.7 µM (inactive) | 67.8 µM (inactive) | > 100 µM (inactive) | 21.2 µM (inactive) | 45.2 µM (inactive) | 8.15 µM (inactive) | 57.1 µM (inactive) | 3.11 µM (inactive) | 13.2 µM (inactive) | 60.3 µM (inactive) | 19.7 µM (inactive) | 49.3 µM (inactive) | 99.3 µM (inactive) | 31 µM (inactive) | 27.2 µM (inactive) | 62.8 µM (inactive) | 31.5 µM (inactive)
7 | COc1ccc(OC)c(C[P+](c2ccccc2)(c2ccccc2)c2ccccc2)c1 | 0.601 µM (active) | 4.8 µM (inactive) | > 100 µM (inactive) | 3.27 µM (inactive) | 2.58 µM (inactive) | 4.36 µM (inactive) | 2.08 µM (inactive) | 21.6 µM (inactive) | 0.991 µM (active) | 3.38 µM (inactive) | 0.445 µM (active) | 0.968 µM (active) | 3.27 µM (inactive) | 1.11 µM (active) | 2.1 µM (inactive) | 5.27 µM (inactive) | 2.54 µM (inactive) | 3.72 µM (inactive) | 4.01 µM (inactive) | 1.57 µM (inactive)
8 | O=c1ccc2[n+]([O-])c3ccc(O)cc3oc-2c1 [RESAZURIN] | 15.3 µM (inactive) | 5.65 µM (inactive) | 13.4 µM (inactive) | 29.6 µM (inactive) | 66.5 µM (inactive) | 39.2 µM (inactive) | 15 µM (inactive) | 1.93 µM (inactive) | 2.72 µM (inactive) | 12.5 µM (inactive) | 10.5 µM (inactive) | 3.44 µM (inactive) | 15.9 µM (inactive) | 5.19 µM (inactive) | 2.56 µM (inactive) | 23.6 µM (inactive) | 13.2 µM (inactive) | 19.2 µM (inactive) | 23.4 µM (inactive) | 7.23 µM (inactive)
9 | O=C1c2ccccc2C(=O)c2c1oc(=O)c1ccccc21 | 3.75 µM (inactive) | 4.59 µM (inactive) | 1.94 µM (inactive) | 3.74 µM (inactive) | 9.25 µM (inactive) | 9.82 µM (inactive) | 2 µM (inactive) | 5.22 µM (inactive) | 1.29 µM (inactive) | 5.35 µM (inactive) | 4 µM (inactive) | 3.65 µM (inactive) | 5.46 µM (inactive) | 5.51 µM (inactive) | 4.23 µM (inactive) | 6.03 µM (inactive) | 0.698 µM (active) | 4.34 µM (inactive) | 1.08 µM (active) | 5.37 µM (inactive)
10 | O=C(O)CSc1ccn(Cc2ccccc2)c1 | > 100 µM (inactive) | > 100 µM (inactive) | > 100 µM (inactive) | > 100 µM (inactive) | > 100 µM (inactive) | > 100 µM (inactive) | > 100 µM (inactive) | > 100 µM (inactive) | > 100 µM (inactive) | > 100 µM (inactive) | > 100 µM (inactive) | > 100 µM (inactive) | > 100 µM (inactive) | > 100 µM (inactive) | > 100 µM (inactive) | > 100 µM (inactive) | > 100 µM (inactive) | > 100 µM (inactive) | > 100 µM (inactive) | > 100 µM (inactive)
11 | O=C(Cc1ccc2ccccc2c1)NCc1ccc(C(=O)NCCc2ccccc2)cc1 | > 100 µM (inactive) | > 100 µM (inactive) | > 100 µM (inactive) | > 100 µM (inactive) | > 100 µM (inactive) | > 100 µM (inactive) | > 100 µM (inactive) | > 100 µM (inactive) | > 100 µM (inactive) | > 100 µM (inactive) | > 100 µM (inactive) | > 100 µM (inactive) | > 100 µM (inactive) | > 100 µM (inactive) | > 100 µM (inactive) | > 100 µM (inactive) | > 100 µM (inactive) | > 100 µM (inactive) | > 100 µM (inactive) | > 100 µM (inactive)
12 | S=C(Nc1ccccn1)Nc1ccccc1Cl | 73.6 µM (inactive) | 32.2 µM (inactive) | > 67.5 µM (inactive) | 61.9 µM (inactive) | > 66.1 µM (inactive) | > 84.3 µM (inactive) | 56 µM (inactive) | > 100 µM (inactive) | 42.4 µM (inactive) | > 67.5 µM (inactive) | > 100 µM (inactive) | > 100 µM (inactive) | > 100 µM (inactive) | > 44.4 µM (inactive) | 49.9 µM (inactive) | > 50.2 µM (inactive) | > 67.1 µM (inactive) | > 43.8 µM (inactive) | > 61.7 µM (inactive) | > 84.5 µM (inactive)
13 | C=C1COC(O)(C2OCOC(C3CC(=O)NC(=O)C3)C2O)C1C (stereo not given) | 0.00213 µM (active) | 0.00533 µM (active) | 0.017 µM (active) | 0.00847 µM (active) | 0.00384 µM (active) | 0.0018 µM (active) | 0.00512 µM (active) | 0.00105 µM (active) | 0.00126 µM (active) | 0.00512 µM (active) | 0.00316 µM (active) | 0.00158 µM (active) | 0.00361 µM (active) | 0.00287 µM (active) | 0.00381 µM (active) | < 0.0126 µM (active) | 0.00356 µM (active) | 0.00511 µM (active) | 0.00342 µM (active) | 0.0031 µM (active)
14 | CC(=O)OC1C2CCC3CC2C2(SCCS2)C31 (stereo not given) | > 100 µM (inactive) | > 100 µM (inactive) | > 100 µM (inactive) | 51.9 µM (inactive) | > 100 µM (inactive) | > 100 µM (inactive) | > 100 µM (inactive) | > 100 µM (inactive) | > 100 µM (inactive) | > 100 µM (inactive) | > 100 µM (inactive) | > 100 µM (inactive) | > 100 µM (inactive) | > 100 µM (inactive) | > 100 µM (inactive) | > 100 µM (inactive) | > 100 µM (inactive) | > 100 µM (inactive) | > 100 µM (inactive) | > 100 µM (inactive)
